In ChEMBL document CHEMBL4130587, “Chemical Compounds as Inhibitors of Kinase Activity for the Treatment of Cancer and COPD” (ACS Med Chem Lett, 2017):
pIC50: −log10 of the molar value.

How the values were obtained:
[1] = molecular target: Phosphatidylinositol 4,5-bisphosphate 3-kinase catalytic subunit gamma isoform (Homo sapiens, UniProt P48736); assay: Inhibition of GST-tagged PI3Kgamma […] (unknown origin) using PIP2 as subtrate after 1 hr in presence of biotin-labeled PIP3 by TR-FRET assay
Chain of Phosphatidylinositol 4,5-bisphosphate 3-kinase catalytic subunit gamma isoform (P48736 whole entry, canonical isoform): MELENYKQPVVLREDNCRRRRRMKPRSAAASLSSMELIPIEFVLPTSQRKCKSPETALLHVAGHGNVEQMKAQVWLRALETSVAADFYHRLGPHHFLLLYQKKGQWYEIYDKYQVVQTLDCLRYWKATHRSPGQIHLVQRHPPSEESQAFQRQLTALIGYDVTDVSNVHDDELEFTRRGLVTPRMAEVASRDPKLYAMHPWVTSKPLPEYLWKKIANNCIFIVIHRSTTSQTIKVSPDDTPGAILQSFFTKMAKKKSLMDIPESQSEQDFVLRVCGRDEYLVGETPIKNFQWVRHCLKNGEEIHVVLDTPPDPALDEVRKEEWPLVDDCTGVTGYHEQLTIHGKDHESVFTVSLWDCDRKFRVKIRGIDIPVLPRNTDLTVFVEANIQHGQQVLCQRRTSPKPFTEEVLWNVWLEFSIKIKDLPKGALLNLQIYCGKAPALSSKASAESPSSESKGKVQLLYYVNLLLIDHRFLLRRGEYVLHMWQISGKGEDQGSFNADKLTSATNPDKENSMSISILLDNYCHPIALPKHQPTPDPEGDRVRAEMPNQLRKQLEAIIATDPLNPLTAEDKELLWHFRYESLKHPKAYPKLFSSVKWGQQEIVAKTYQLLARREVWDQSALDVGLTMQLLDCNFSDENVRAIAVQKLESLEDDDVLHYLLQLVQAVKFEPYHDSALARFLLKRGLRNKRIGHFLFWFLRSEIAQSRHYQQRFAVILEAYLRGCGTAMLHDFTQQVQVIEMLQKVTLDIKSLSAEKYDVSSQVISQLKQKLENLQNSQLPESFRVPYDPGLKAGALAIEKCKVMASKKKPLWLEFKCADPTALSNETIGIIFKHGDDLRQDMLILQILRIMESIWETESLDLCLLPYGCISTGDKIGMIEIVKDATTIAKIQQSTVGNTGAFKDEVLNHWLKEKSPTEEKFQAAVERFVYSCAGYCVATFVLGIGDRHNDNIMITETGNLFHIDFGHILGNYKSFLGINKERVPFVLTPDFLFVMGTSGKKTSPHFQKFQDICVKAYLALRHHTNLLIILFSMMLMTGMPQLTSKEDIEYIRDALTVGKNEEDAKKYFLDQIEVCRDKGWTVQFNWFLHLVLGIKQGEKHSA

[2] = molecular target: Phosphatidylinositol 4,5-bisphosphate 3-kinase catalytic subunit beta isoform (Homo sapiens, UniProt P42338); assay: Inhibition of GST-tagged PI3Kbeta […] (unknown origin) using PIP2 as subtrate after 1 hr in presence of biotin-labeled PIP3 by TR-FRET assay
Chain of Phosphatidylinositol 4,5-bisphosphate 3-kinase catalytic subunit beta isoform (P42338 whole entry, canonical isoform): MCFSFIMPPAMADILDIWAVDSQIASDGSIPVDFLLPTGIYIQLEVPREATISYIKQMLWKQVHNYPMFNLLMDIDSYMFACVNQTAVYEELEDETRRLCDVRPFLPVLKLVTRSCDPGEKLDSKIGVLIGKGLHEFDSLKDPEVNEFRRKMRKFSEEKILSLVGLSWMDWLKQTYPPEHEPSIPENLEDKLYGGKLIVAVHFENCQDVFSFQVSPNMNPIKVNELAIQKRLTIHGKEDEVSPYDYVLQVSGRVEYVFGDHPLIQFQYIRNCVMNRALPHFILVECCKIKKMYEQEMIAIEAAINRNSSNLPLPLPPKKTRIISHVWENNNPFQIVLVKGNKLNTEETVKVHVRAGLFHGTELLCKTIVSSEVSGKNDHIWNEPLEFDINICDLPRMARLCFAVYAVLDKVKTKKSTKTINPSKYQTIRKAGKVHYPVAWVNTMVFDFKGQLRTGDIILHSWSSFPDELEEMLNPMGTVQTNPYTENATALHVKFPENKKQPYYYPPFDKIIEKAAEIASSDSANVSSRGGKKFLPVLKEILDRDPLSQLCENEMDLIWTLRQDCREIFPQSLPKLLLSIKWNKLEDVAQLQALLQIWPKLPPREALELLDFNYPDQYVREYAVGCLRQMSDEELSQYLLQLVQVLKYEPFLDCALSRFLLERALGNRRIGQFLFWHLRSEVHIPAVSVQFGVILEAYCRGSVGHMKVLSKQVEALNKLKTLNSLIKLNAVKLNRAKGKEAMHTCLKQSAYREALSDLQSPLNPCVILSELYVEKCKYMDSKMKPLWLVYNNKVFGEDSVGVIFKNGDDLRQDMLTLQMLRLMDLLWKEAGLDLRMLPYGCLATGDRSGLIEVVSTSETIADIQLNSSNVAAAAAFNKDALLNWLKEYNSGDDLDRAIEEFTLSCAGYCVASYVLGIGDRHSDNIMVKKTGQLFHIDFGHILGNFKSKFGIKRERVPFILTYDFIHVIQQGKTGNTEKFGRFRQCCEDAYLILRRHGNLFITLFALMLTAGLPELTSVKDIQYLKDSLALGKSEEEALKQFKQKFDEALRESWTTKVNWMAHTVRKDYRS

[3] = molecular target: T1, Phosphatidylinositol 4,5-bisphosphate 3-kinase catalytic subunit delta isoform (Homo sapiens, UniProt O00329); assay: Inhibition of GST-tagged PI3Kdelta […] (unknown origin) using PIP2 as subtrate after 1 hr in presence of biotin-labeled PIP3 by TR-FRET assay
T1 sequence (O00329 whole entry): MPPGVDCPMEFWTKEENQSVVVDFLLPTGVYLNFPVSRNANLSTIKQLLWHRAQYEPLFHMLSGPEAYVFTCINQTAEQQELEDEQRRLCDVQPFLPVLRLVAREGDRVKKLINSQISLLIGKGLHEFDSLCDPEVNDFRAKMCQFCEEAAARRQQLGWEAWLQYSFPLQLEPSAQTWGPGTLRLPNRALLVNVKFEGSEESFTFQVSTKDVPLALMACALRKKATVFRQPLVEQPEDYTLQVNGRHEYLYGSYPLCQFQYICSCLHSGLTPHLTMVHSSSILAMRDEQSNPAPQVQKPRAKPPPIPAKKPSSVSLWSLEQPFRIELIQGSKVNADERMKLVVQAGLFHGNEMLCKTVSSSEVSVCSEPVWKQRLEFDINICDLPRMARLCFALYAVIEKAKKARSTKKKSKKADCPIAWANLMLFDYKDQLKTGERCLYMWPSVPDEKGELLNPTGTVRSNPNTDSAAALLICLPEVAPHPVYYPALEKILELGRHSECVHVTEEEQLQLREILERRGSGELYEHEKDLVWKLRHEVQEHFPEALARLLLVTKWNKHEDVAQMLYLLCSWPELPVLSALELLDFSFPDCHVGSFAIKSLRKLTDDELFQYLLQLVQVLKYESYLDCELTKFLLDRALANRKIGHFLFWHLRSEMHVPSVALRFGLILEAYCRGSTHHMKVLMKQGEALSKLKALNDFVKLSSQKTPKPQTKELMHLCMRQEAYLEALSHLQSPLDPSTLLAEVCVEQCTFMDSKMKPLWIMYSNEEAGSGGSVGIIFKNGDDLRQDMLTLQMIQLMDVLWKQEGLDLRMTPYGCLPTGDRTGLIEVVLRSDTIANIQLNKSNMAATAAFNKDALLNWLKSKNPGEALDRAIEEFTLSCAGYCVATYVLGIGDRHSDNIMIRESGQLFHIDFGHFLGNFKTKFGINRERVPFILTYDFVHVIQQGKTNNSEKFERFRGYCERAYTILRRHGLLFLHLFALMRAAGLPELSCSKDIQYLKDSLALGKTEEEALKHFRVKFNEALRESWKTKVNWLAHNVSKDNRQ

[4] = molecular target: Phosphatidylinositol 4,5-bisphosphate 3-kinase catalytic subunit alpha isoform (Homo sapiens, UniProt P42336); assay: Inhibition of GST-tagged PI3Kalpha […] (unknown origin) using PIP2 as subtrate after 1 hr in presence of biotin-labeled PIP3 by TR-FRET assay
Chain of Phosphatidylinositol 4,5-bisphosphate 3-kinase catalytic subunit alpha isoform (P42336 whole entry, canonical isoform): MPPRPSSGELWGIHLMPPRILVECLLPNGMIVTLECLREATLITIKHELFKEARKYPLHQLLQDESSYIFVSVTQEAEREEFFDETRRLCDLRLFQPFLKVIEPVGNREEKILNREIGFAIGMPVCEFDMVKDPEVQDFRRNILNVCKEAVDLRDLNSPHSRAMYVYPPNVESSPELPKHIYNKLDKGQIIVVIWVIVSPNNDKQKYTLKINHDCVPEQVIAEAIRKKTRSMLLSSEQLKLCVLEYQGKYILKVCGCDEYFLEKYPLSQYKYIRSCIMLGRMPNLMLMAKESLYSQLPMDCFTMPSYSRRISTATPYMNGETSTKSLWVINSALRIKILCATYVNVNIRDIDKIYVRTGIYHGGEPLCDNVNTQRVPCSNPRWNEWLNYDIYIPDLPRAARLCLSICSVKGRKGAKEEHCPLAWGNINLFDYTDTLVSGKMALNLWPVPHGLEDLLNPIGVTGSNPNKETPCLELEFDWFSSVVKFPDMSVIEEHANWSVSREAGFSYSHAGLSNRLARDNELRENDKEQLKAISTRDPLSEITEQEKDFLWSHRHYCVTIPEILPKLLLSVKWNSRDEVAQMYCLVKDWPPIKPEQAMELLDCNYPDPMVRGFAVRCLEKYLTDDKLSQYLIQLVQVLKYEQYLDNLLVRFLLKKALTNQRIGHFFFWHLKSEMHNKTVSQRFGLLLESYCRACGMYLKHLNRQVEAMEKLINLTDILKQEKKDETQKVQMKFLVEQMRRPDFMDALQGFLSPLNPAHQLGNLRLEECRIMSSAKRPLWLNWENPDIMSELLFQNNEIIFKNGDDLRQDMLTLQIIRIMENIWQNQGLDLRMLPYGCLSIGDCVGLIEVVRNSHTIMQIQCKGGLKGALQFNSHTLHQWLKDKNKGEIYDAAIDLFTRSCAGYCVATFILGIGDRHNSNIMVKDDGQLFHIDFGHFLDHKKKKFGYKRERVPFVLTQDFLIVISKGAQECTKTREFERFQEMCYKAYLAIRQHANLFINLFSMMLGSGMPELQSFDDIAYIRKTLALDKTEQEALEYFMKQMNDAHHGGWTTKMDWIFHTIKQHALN

Measured: pIC50

COc1ncc(N2CCOCC2)cc1S(=O)(=O)Nc1ccnc(-c2ccc(CN3CCN(C4CCC4)CC3)cc2F)c1
≥ 5.00: all assays above

CC(C)N1CCN(Cc2ccc(-c3cc(NS(=O)(=O)c4cc(N5CCOCC5)cnc4N(C)C)ccn3)c(F)c2)CC1
≥ 5.00: all assays above

CCC(C)N1CCN(Cc2ccc(-c3cc(NS(=O)(=O)c4cc(N5CCOCC5)cnc4OC)ccn3)cc2)CC1 (centres undefined)
≥ 5.00: all assays above

COCCN1CCN(Cc2ccc(-c3cc(NS(=O)(=O)c4cc(N5CCOCC5)cnc4OC)ccn3)c(F)c2)CC1
≥ 5.00: all assays above

COc1ncc(N2CCOCC2)cc1S(=O)(=O)Nc1ccnc(-c2ccc(CN3CCC(C)C3)cc2F)c1 (centres undefined)
≥ 5.00: all assays above

CCOC(=O)CN(c1ccnc(-c2ccc(CN3CCN(C(C)C)CC3)cc2F)c1)S(=O)(=O)c1cc(N2CCOCC2)cnc1OC
≥ 5.00: all assays above

CCOc1ncc(N2CCOCC2)cc1S(=O)(=O)Nc1ccnc(-c2ccc(CN3C[C@@H](C)O[C@@H](C)C3)cc2F)c1
≥ 5.00: all assays above

COc1ncc(N2CCOCC2)cc1S(=O)(=O)N(c1ccnc(-c2ccc(CN3CCN(C(C)C)CC3)cc2F)c1)C(C)C
≥ 5.00: all assays above

COc1ncc(N2CCOCC2)cc1S(=O)(=O)Nc1ccnc(-c2ccc(CN3CCN(C(C)(C)C)CC3)cc2)c1
≥ 5.00: all assays above

COc1ncc(N2CCOCC2)cc1S(=O)(=O)Nc1ccnc(-c2ccc(CN3C[C@@H](C)O[C@@H](C)C3)cc2)c1
≥ 5.00: all assays above

CN(C)c1ncc(N2CCOCC2)cc1S(=O)(=O)Nc1ccnc(-c2ccc(CN3CCN(C(C)(C)C)CC3)cc2F)c1
≥ 5.00: all assays above

COc1ncc(N2CCOCC2)cc1S(=O)(=O)Nc1ccnc(-c2ccc(CN3CCCCC3)cc2F)c1
≥ 5.00: all assays above

COc1ncc(N2CCOCC2)cc1S(=O)(=O)Nc1ccnc(-c2ccc(CN3CCN(C(C)C)CC3)cc2F)c1
≥ 5.00: all assays above

COc1ncc(N2CCOCC2)cc1S(=O)(=O)Nc1ccnc(-c2cc(Cl)c(CN3CCN(C(C)C)CC3)cc2F)c1
≥ 5.00: all assays above

CCN(c1ccnc(-c2ccc(CN3CCN(C(C)C)CC3)cc2F)c1)S(=O)(=O)c1cc(N2CCOCC2)cnc1OC
≥ 5.00: all assays above

COc1ncc(N2CCOCC2)cc1S(=O)(=O)Nc1ccnc(-c2c(F)cc(CN3CCN(C(C)C)CC3)cc2F)c1
≥ 5.00: all assays above

COc1ncc(N2CCOCC2)cc1S(=O)(=O)Nc1ccnc(-c2ccc(CN3CCN(C(C)C)CC3)cc2)c1
≥ 5.00: all assays above

COc1ncc(N2CCOCC2)cc1S(=O)(=O)Nc1ccnc(-c2ccc(CN3CCNCC3)cc2F)c1
≥ 5.00: all assays above

COc1ncc(N2CCOCC2)cc1S(=O)(=O)Nc1ccnc(-c2ccc(CN3CCCC3C)cc2F)c1 (centres undefined)
≥ 5.00: all assays above

CCCN(c1ccnc(-c2ccc(CN3CCN(C(C)C)CC3)cc2F)c1)S(=O)(=O)c1cc(N2CCOCC2)cnc1OC
≥ 5.00: all assays above

COc1ncc(N2CCOCC2)cc1S(=O)(=O)Nc1ccnc(-c2ccc(CN3CCN(C(C)C)CC3)c(F)c2)c1
≥ 5.00: all assays above

COc1ncc(N2CCOCC2)cc1S(=O)(=O)Nc1ccnc(-c2ccc(CN3CCOCC3)cc2)c1
≥ 5.00: all assays above

COc1ncc(N2CCOCC2)cc1S(=O)(=O)Nc1ccnc(-c2cc(F)c(CN3CCN(C(C)C)CC3)cc2F)c1
≥ 5.00: all assays above

COc1ncc(N2CCOCC2)cc1S(=O)(=O)Nc1ccnc(-c2ccc(CN3CCC(C(C)(C)O)CC3)cc2F)c1
≥ 5.00: all assays above

COc1ncc(N2CCOCC2)cc1S(=O)(=O)N(COC(=O)C(C)(C)C)c1ccnc(-c2ccc(CN3CCN(C(C)C)CC3)cc2F)c1
≥ 5.00: all assays above

COc1ncc(N2CCOCC2)cc1S(=O)(=O)Nc1ccnc(-c2ccc(CN3CCN(C(C)(C)C)CC3)cc2F)c1
≥ 5.00: all assays above

COc1ncc(N2CCOCC2)cc1S(=O)(=O)Nc1ccnc(-c2ccc(CN3C[C@@H](C)O[C@@H](C)C3)cc2F)c1
≥ 5.00: all assays above

COc1ncc(N2CCOCC2)cc1S(=O)(=O)N(C)c1ccnc(-c2ccc(CN3CCN(C(C)C)CC3)cc2F)c1
≥ 5.00: all assays above

COc1ncc(N2CCOCC2)cc1S(=O)(=O)N(C)c1ccnc(-c2ccc(CN3CCN(C(C)(C)C)CC3)cc2F)c1
≥ 5.00: all assays above

COc1ncc(N2CCOCC2)cc1S(=O)(=O)Nc1ccnc(-c2ccc(CN3CCN(C4CCC4)CC3)cc2)c1
≥ 5.00: all assays above

COc1ncc(N2CCOCC2)cc1S(=O)(=O)Nc1ccnc(-c2ccc(CN(C)C)cc2)c1
≥ 5.00: all assays above
